Like-named read-outs stand apart in the source and are kept apart here.
Key:
[1] = reason it must be taken intravenously; cited from earlier work
human bone marrow cells = settings: background statement; cited from earlier work
[2] = Comparison of toxicity of polyoxometalate compounds in mice (mortality, haematology); format: in vivo; design: MCV (mean corpuscular volume): unit not given here; settings: BID × 6, 60 mkd i.p.
Description: Comparison of Toxicity of Polyoxometalate Compounds Mice.
In vivo antiviral experiments. […] Treatment was continued daily for 6 or 10 days.

[3] = test system: human granulocyte-macrophage precursor cells; format: cell-based
Description: Preparation of Cells. Human bone marrow cells were collected by aspiration from the posterior iliac crest of normal healthy volunteers, treated with heparin and the mononuclear population separated by Ficoll-Hypaque gradient centrifugation. Cells were washed twice in Hanks balanced salt solution, counted with a hemacytometer and their viability was >98% as assessed by trypan blue exclusion.
Assay of Colony-Forming Unit Granulocyte-Macrophage (CFU-GM) for Drug Cytotoxicity. The culture assay for CFU-GM was performed using a bilayer soft-agar method as recently described (Sommadossi et al, Antimicrob. Agents Chemother. 31, 452-454, 1987). McCoy 5A nutrient medium supplemented with 15% dialyzed fetal bovine serum (heat inactivated at 56° C. for 30 min.) (Gibco Laboratories, Grand Island, N.Y.) was used in all experiments. This medium was completely lacking in thymidine and uridine. Cells were cloned in 0.3% agar in the presence of increasing concentrations of the modulating compound or in medium alone (control). After 14 days of incubation at 37° C. in a humidified atmosphere of 5% CO2 in air, colonies (≧50 cells) were counted using an inverted microscope.
The toxicities of a variety of polyoxometalates with respect to human bone marrow cells (human granulocyte-macrophage precursor cells) were assessed.

[4] = background statement; AZT in a clinical setting; cited from earlier work
HIV-1 (strain LAV-1) = test: microbe, parasite or virus in culture; format: cell-based
Description: Cells. Human peripheral blood mononuclear cells (PBMC) from healthy HIV-1 seronegative and hepatitis B virus seronegative donors were isolated by Ficoll-Hypaque discontinuous gradient centrifugation at 1,000×g for 30 minutes, washed twice in phosphate-buffered saline (pH 7.2; PBS), and pelleted at 300×g for 10 minutes. Before infection, the cells were stimulated by phytohemagglutinin (PHA) at a concentration of 6 μg/ml for three days in RPMI 1640 medium supplemented with 15% heat-inactivated fetal calf serum, 1.5 mM L-glutamine, penicillin (100 U/ml), streptomycin (100 μg/ml), and 4mM sodium bicarbonate buffer.
Viruses. HIV-1 (strain LAV-1) was obtained from Dr. P. Feorino (Centers for Disease Control, Atlanta, Ga.). The virus was propagated in human PBMC using RPMI 1640 medium, as described previously (McDougal et al, J. Immun. Meth. 76, 171-183, 1985) without PHA and supplemented with 7% v/v interleukin-2 (Advanced Biotechnologies, Silver Spring, Md.), 7 μg/ml DEAE-dextran (Pharmacia, Uppsala, Sweden), and 370 U/ml anti-human leucocyte (alpha) interferon (ICN, Lisle, Ill.). Virus obtained from cell-free culture supernatant was titrated and stored in aliquots at −80° C. until use.
Inhibition of virus replication in human PBMC. Uninfected PHA-stimulated human PBMC were uniformly distributed among 25 cm^2 flasks to give a 5 ml suspension containing about 2×10^6 cells/ml. Suitable dilutions of virus were added to infect the cultures. The mean reverse transcriptase (RT) activity of the inocula was 50,000 decompositions per min/ml corresponding to about 100 TCID50, as determined by Groopman et al. (Groopman et al, AIDS Res. Human Retro. 3, 71-85, 1987. The drugs at twice their final concentrations in 5 ml of RPMI 1640 medium, supplemented as described above, were added to the cultures. Uninfected and untreated PBMC at equivalent cell densities were grown in parallel as controls. The cultures were maintained in a humidified 5% CO2-95% air incubator at 37° C. for six days after infection, at which point all cultures were sampled for supernatant reverse transcriptase (RT) activity.
RT activity assay. Six ml supernatant from each culture was clarified from cells at 300×g for 10 minutes. Virus particles were pelleted from 5 ml samples at 40,000 rpm for 30 minutes using a Beckman 70.1 Ti rotor and suspended in 200 μl of virus disrupting buffer (50 mM Tris-Cl, pH 7.8, 800 mM NaCl, 20% glycerol, 0.5 mM phenylmethyl sulfonyl fluoride, and 0.5% Triton X-100).
The RT assay was performed in 96-well microtiter plates, as described by Spira et al. (Spira et al, J. Clin. Microbiol. 22, 97-99, 1987). The reaction mixture, which contained 50 mM Tris-Cl pH 7.8, 9 mM MgCl2, 5 mM dithiothreitol (DTT), 4.7 μg/ml (rA)n. (dT)12-18, 140 μM dATP, and 0.22 μM [^3H]TTP, specific activity 78.0 Ci/mmol, equivalent to 17,300 cpm/pmol; NEN Research Products, Boston, Mass., was added to each well. The sample (20 μl) was added to the reaction mixture which was then incubated at 37° C. for 2 hours. The reaction was terminated by the addition of 100 μl 10% trichloroacetic acid (TCA) containing 0.45 mM sodium pyrophosphate. The acid-insoluble nucleic acids which precipitated were collected on glass filters using a Skatron semi-automatic harvester. The filters were washed with 5% TCA and 70% ethanol, dried, and placed in scintillation vials. Four ml of scintillation fluid (Econofluor, NEN Research Products, Boston, Mass.) were added and the amount of radioactivity in each sample was determined using a Packard Tri-Carb liquid scintillation analyzer (model 2,000CA). The results were expressed in dpm/ml of original clarified supernatant.
Median-effect method. Dose-effect relationships were analyzed by the median-effect equation (Chou et al, Adv. Enz. Regul. 22, 27-55, 1984).

human PBM cells = test: Cytotoxicity assay on uninfected PHA stimulated human PBMC (trypan blue); format: cell-based; settings: Table 1; read-out: IC50 Toxicity in Human PBM Cells
Description: Cells. […] PBS), and pelleted at 300×g for 10 minutes. […] Cytotoxicity assay. The drugs were evaluated for their potential toxic effects on uninfected PHA stimulated human PBMC. Flasks were seeded so that the final cell concentration was 2×10^5 cells/ml. The cells were cultured with and without drug for 6 days, at which time aliquots were counted for cell viability, as assessed by the trypan blue dye-exclusion method using a hemacytometer. The median inhibitory concentration (IC50) was calculated using the median effect method (Chou et al, Elsevier-Biosoft, Elsevier Science Publishers, Cambridge, U.K., 1985; Chou et al, Adv. Enz. Regul. 22, 27-55, 1984). Median-effect method. Dose-effect relationships were analyzed by the median-effect equation (Chou et al, Adv. Enz. Regul. 22, 27-55, 1984). The slope (m) and median effective and inhibitory concentration (EC50 and IC50) values were obtained by using a computer program developed by Chou and Chou (Chou et al, Elsevier-Biosoft, Elsevier Science Publishers, Cambridge, U.K., 1985).

[5] = test system: Mouse Ecotropic, CNS (CAS-Br-M); test: UV/XC assay for murine retroviruses in SC-1 cells; format: cell-based, murine retrovirus; settings: Table 2; read-out: EC-50 Mouse Ecotropic, CNS (CAS-Br-M)
Description: UV/XC Assay for Murine Retroviruses Cells. Mouse embryo fibroblasts (SC-1) and XC cells were obtained from the American Type Culture Collection, Rockville, Md. […] The cells were maintained in Eagle's minimum essential medium with Hanks balanced salt solution, supplemented with penicillin (100 U/ml), streptomycin (100 μg/ml), sodium bicarbonate (24 mM), Hepes (25 mM), and either 2 (maintenance) or 10 (growth) percent inactivated newborn or fetal calf serum.
Virus quantitation by UV-XC assay. The XC test (Rowe et al, Virology 42, 1136-1139, 1970) is a plaque-type of assay which tests for the presence and titer of B- and N-tropic murine leukemia viruses. Because these viruses produce no overt signs of infection of SC-1 mouse cells, it is necessary to overlay the virus producing culture with an indicator cell line, XC. The number of syncytia that are produced is a direct measure of the virus titer in FFU.
Six-well plates were seeded with 1×10^5 SC-1 mouse cells on the first day. On the following day the medium was removed and the inoculum (0.2 ml) was added in medium containing polybrene (4 μg/ml). For determining the antiviral activity of the compounds in culture, the virus dilution selected produced in untreated cultures about 80 foci per well. […] Control cells without virus but receiving the drug provided an estimate of the drug's toxic effects as quantitated by using trypan blue staining.

[6] = target: T1, HIV-1 reverse transcriptase (Human immunodeficiency virus type 1 group M subtype B, UniProt P04585); test: Evaluation of compounds on purified retroviral RT (cell-free, virion-derived); format: biochemical; settings: Table 2; read-out: EC-50 Cell-Free RT (virion-derived)
T1 construct: HIV-1 RT was isolated from detergent disrupted virions; made in house; host or cells: virions pelleted from culture fluid of HIV-1-infected PHA-stimulated human PBMC; DEAE-cellulose and phosphocellulose chromatography
Description: Evaluation of compounds on purified retroviral RT. HIV-1 RT was isolated from detergent disrupted virions obtained from the cell-free supernatant of infected PHA-stimulated PBMC. The enzyme was purified by passing the extract through ion-exchange chromatography columns, as described previously (Eriksson et al, Antimicrob. Agents Chemother. 31, 600-604, 1977. Briefly, 750 ml of culture fluid harvested from HIV-1-infected PBMC were ultracentrifuged to pellet the virus. The pellet was dissolved in buffer A [50 mM Tris-HCl, pH 7.9/0.25% Nonidet P-40/5 mM dithiothreitol/20% (vol/vol) glycerol] containing 1 mM EDTA, and freeze-thawed four times. After clarification by centrifugation, the enzyme was partially purified from the supernatant by passing the extract through a DEAE-cellulose column (Whatman DE-52; 2.6×15 cm) previously equilibrated with buffer B (50 mM Tris-Cl, pH 7.9, 50 mM KCl, 1 mM EDTA, 1 mM dithiothreitol, 20% glycerol). Elution was performed using a linear gradient 50-500 mM KCl in buffer B. Fractions containing enzyme activity were dialyzed against buffer B and were further purified on a phosphocellulose column (Whatman P-11) using a linear KCl (50-500 mM) gradient in buffer B. The peak fractions were pooled and dialyzed against buffer B. The enzyme was characterized as HIV-1 reverse transcriptase based on its cation, salt, pH, and template requirements according to previous descriptions (Eriksson et al, Antimicrob. Agents Chemother. 31, 600-604, 1977). The standard reaction mixture was used to evaluate the inhibitory effect of the drugs, as previously described (Eriksson et al, Antimicrob. Agents Chemother. 31, 600-604, 1977). Briefly, the reaction mixtures (final volume 100 μl) contained 100 mM Tris-HCl, pH 8.0, 50 mM KCl, 2 mM MgCl2, 5 mM DTT, 400 ug/ml bovine serum albumin, 3 μg/ml (rA)·(dT)12-18 and 1 μM of [^3H]TTP (specific activity 82.3 Ci/mmol). The reactions were started by the addition of 10 μl of partially purified RT, incubated at 37° C. for 60 min., and processed as previously described (Eriksson et al, Antimicrob. Agents Chemother. 31, 600-604, 1977).
Median-effect method. Dose-effect relationships were analyzed by the median-effect equation (Chou et al, Adv. Enz. Regul. 22, 27-55, 1984). The slope (m) and median effective and inhibitory concentration (EC50 and IC50) values were obtained by using a computer program developed by Chou and Chou (Chou et al, Elsevier-Biosoft, Elsevier Science Publishers, Cambridge, U.K., 1985).

[7] = Table 2, several values per cell, some in brackets, read-out: EC-50 HIV-1 (LAV-1)

Row | Substance | pH at which it degrades [1] | toxicity to human bone marrow cells (human bone marrow cells) | Hct (hematocrit) ([2]; bled on day 17) [%] | Hgb (hemaglobin) ([2]; bled on day 17) [g/dL] | MCH ([2]; bled on day 17) [pg] | MCHC (mean corpuscular hemoglobin concentration) ([2]; bled on day 17) [g/dL] | MCV (mean corpuscular volume) ([2]; bled on day 17) | PLT (platelates) (×1000) ([2]; bled on day 17) | RBC (×1000000) ([2]; bled on day 17) | RDW (width of red cells) ([2]; bled on day 17) [%] | WBC (×1000) ([2]; bled on day 17) | Mortality ([2]; dead/total) | toxicity to human bone marrow cells (order of toxicity, FIG. 6) [3] | adverse effect [4] | EC50 (HIV-1 (strain LAV-1); Table 1, read-out: EC50 Anti-HIV-1 Activity in Human PBM Cells) [µM] | EC50 (HIV-1 (strain LAV-1); [7]) [µM] | IC50 (human PBM cells) [µM] | EC50 [5] [µM] | EC50 [6] [µM]
1 | (NH4)17Na[NaSbgW21O86] [Formula 1, reference compound] | < 4 | high toxicity | 14.82 ± 4.44 | 5.5 ± 1.43 | 17.64 ± 2.07 | 37.66 ± 4.32 | 46.86 ± 0.4 | 226.4 ×1000 | 3.16 ± 0.95 ×1000000 | 35.6 ± 2.12 | 4.16 ± 1.45 ×1000 | 0/5 | most toxic | induces thrombocytopenia | 0.39 | 0.29 | 35 |  | 
2 | K5BW12O40 [α-K5BT] |  |  |  |  |  |  |  |  |  |  |  |  |  |  |  | 0.36 |  | 0.91 | 2.9

Reference: patent US6911470B1, “Polyoxometalate compounds as antiviral agents” (priority 1988, dated 2005)
